# According to patent US9340559B2, “Proteasome inhibitor delanzomib for use in the treatment of lupus” (Cephalon, Inc., priority 2011, dated 2016):
# Where two headings read alike, the source gives them in different places.
# System: NZM mice
# Format: in vivo, mouse
smiles,measurement,setting,value
"CC(C)C[C@H](NC(=O)[C@@H](NC(=O)c1cccc(-c2ccccc2)n1)[C@@H](C)O)B(O)O [COMPOUND A, [(1R)-1-[[(2S,3R)-3-hydroxy-2-[6-phenyl-pyridine-2-carbonyl)amino]-1-oxobutyl]amino]-3-methylbutylboronic acid]","p, serum MIG concentration vs G8 Dex 1.5 mg/kg 3× wk ip",G1 3 mg/kg 1× wk ip,NS (NS = not significant (p > 0.05))
same,"p, serum MIG concentration vs G9 Vehicle 1× wk ip",G1 3 mg/kg 1× wk ip,NS (NS = not significant (p > 0.05))
same,"p, serum TNFα concentration vs G5 Bortezomib 0.3 mg/kg 1× wk ip",G1 3 mg/kg 1× wk ip,NS (NS = not significant (p > 0.05))
same,"p, serum TNFα concentration vs G6 Bortezomib 0.3 mg/kg 2× wk ip",G1 3 mg/kg 1× wk ip,NS (NS = not significant (p > 0.05))
same,"p, serum TNFα concentration vs G7 CTX 50 mg/kg 1× wk ip",G1 3 mg/kg 1× wk ip,NS (NS = not significant (p > 0.05))
same,"p, serum TNFα concentration vs G8 Dex 1.5 mg/kg 3× wk ip",G1 3 mg/kg 1× wk ip,p <0.001
same,"p, serum TNFα concentration vs G9 Vehicle 1× wk ip",G1 3 mg/kg 1× wk ip,NS (NS = not significant (p > 0.05))
same,"Cytokine IL-12 AUC, percent change vs vehicle","G1 3 mg/kg ip, 1× wk",−83%
same,"Cytokine IL-13 AUC, percent change vs vehicle","G1 3 mg/kg ip, 1× wk",−27%
same,"Cytokine IL-17A AUC, percent change vs vehicle","G1 3 mg/kg ip, 1× wk",−41%
same,"Cytokine IP-10 AUC, percent change vs vehicle","G1 3 mg/kg ip, 1× wk",+17%
same,"Cytokine MIG AUC, percent change vs vehicle","G1 3 mg/kg ip, 1× wk",−55%
same,"Cytokine TNFα AUC, percent change vs vehicle","G1 3 mg/kg ip, 1× wk",−61%
same,serum IL-12p40/p70 decrease vs vehicle,G1: 3 mg/kg ip once per week,83%
same,"p, serum IL-12p40/p70 concentration vs G5 Bortezomib 0.3 mg/kg 1× wk ip",G2 3 mg/kg 2× wk ip,NS (NS = not significant (p > 0.05))
same,"p, serum IL-12p40/p70 concentration vs G6 Bortezomib 0.3 mg/kg 2× wk ip",G2 3 mg/kg 2× wk ip,NS (NS = not significant (p > 0.05))
same,"p, serum IL-12p40/p70 concentration vs G7 CTX 50 mg/kg 1× wk ip",G2 3 mg/kg 2× wk ip,NS (NS = not significant (p > 0.05))
same,"p, serum IL-12p40/p70 concentration vs G8 Dex 1.5 mg/kg 3× wk ip",G2 3 mg/kg 2× wk ip,NS (NS = not significant (p > 0.05))
same,"p, serum IL-12p40/p70 concentration vs G9 Vehicle 1× wk ip",G2 3 mg/kg 2× wk ip,p < 0.01
same,"p, serum IL-13 concentration vs G5 Bortezomib 0.3 mg/kg 1× wk ip",G2 3 mg/kg 2× wk ip,NS (NS = not significant (p > 0.05))
same,"p, serum IL-13 concentration vs G6 Bortezomib 0.3 mg/kg 2× wk ip",G2 3 mg/kg 2× wk ip,NS (NS = not significant (p > 0.05))
same,"p, serum IL-13 concentration vs G7 CTX 50 mg/kg 1× wk ip",G2 3 mg/kg 2× wk ip,P < 0.001
same,"p, serum IL-13 concentration vs G8 Dex 1.5 mg/kg 3× wk ip",G2 3 mg/kg 2× wk ip,NS (NS = not significant (p > 0.05))
same,"p, serum IL-13 concentration vs G9 Vehicle 1× wk ip",G2 3 mg/kg 2× wk ip,NS (NS = not significant (p > 0.05))
same,"p, serum IL-17A concentration vs G5 Bortezomib 0.3 mg/kg 1× wk ip",G2 3 mg/kg 2× wk ip,NS (NS = not significant (p > 0.05))
same,"p, serum IL-17A concentration vs G6 Bortezomib 0.3 mg/kg 2× wk ip",G2 3 mg/kg 2× wk ip,NS (NS = not significant (p > 0.05))
same,"p, serum IL-17A concentration vs G7 CTX 50 mg/kg 1× wk ip",G2 3 mg/kg 2× wk ip,p < 0.001
same,"p, serum IL-17A concentration vs G8 Dex 1.5 mg/kg 3× wk ip",G2 3 mg/kg 2× wk ip,NS (NS = not significant (p > 0.05))
same,"p, serum IL-17A concentration vs G9 Vehicle 1× wk ip",G2 3 mg/kg 2× wk ip,NS (NS = not significant (p > 0.05))
same,"p, serum IP-10 concentration vs G5 Bortezomib 0.3 mg/kg 1× wk ip",G2 3 mg/kg 2× wk ip,NS (NS = not significant (p > 0.05))
same,"p, serum IP-10 concentration vs G6 Bortezomib 0.3 mg/kg 2× wk ip",G2 3 mg/kg 2× wk ip,NS (NS = not significant (p > 0.05))
same,"p, serum IP-10 concentration vs G7 CTX 50 mg/kg 1× wk ip",G2 3 mg/kg 2× wk ip,p < 0.001
same,"p, serum IP-10 concentration vs G8 Dex 1.5 mg/kg 3× wk ip",G2 3 mg/kg 2× wk ip,NS (NS = not significant (p > 0.05))
same,"p, serum IP-10 concentration vs G9 Vehicle 1× wk ip",G2 3 mg/kg 2× wk ip,NS (NS = not significant (p > 0.05))
same,"p, serum MIG concentration vs G5 Bortezomib 0.3 mg/kg 1× wk ip",G2 3 mg/kg 2× wk ip,NS (NS = not significant (p > 0.05))
same,"p, serum MIG concentration vs G6 Bortezomib 0.3 mg/kg 2× wk ip",G2 3 mg/kg 2× wk ip,NS (NS = not significant (p > 0.05))
same,"p, serum MIG concentration vs G7 CTX 50 mg/kg 1× wk ip",G2 3 mg/kg 2× wk ip,p < 0.001
same,"p, serum MIG concentration vs G8 Dex 1.5 mg/kg 3× wk ip",G2 3 mg/kg 2× wk ip,NS (NS = not significant (p > 0.05))
same,"p, serum MIG concentration vs G9 Vehicle 1× wk ip",G2 3 mg/kg 2× wk ip,NS (NS = not significant (p > 0.05))
same,"p, serum TNFα concentration vs G5 Bortezomib 0.3 mg/kg 1× wk ip",G2 3 mg/kg 2× wk ip,NS (NS = not significant (p > 0.05))
same,"p, serum TNFα concentration vs G6 Bortezomib 0.3 mg/kg 2× wk ip",G2 3 mg/kg 2× wk ip,NS (NS = not significant (p > 0.05))
same,"p, serum TNFα concentration vs G7 CTX 50 mg/kg 1× wk ip",G2 3 mg/kg 2× wk ip,NS (NS = not significant (p > 0.05))
same,"p, serum TNFα concentration vs G8 Dex 1.5 mg/kg 3× wk ip",G2 3 mg/kg 2× wk ip,p <0.001
same,"p, serum TNFα concentration vs G9 Vehicle 1× wk ip",G2 3 mg/kg 2× wk ip,NS (NS = not significant (p > 0.05))
same,"Cytokine IL-12 AUC, percent change vs vehicle","G2 3 mg/kg ip, 2× wk",−67%
same,"Cytokine IL-13 AUC, percent change vs vehicle","G2 3 mg/kg ip, 2× wk",−33%
same,"Cytokine IL-17A AUC, percent change vs vehicle","G2 3 mg/kg ip, 2× wk",−89%
same,"Cytokine IP-10 AUC, percent change vs vehicle","G2 3 mg/kg ip, 2× wk",−30%
same,"Cytokine MIG AUC, percent change vs vehicle","G2 3 mg/kg ip, 2× wk",−66%
same,"Cytokine TNFα AUC, percent change vs vehicle","G2 3 mg/kg ip, 2× wk",−57%
same,serum IL-12p40/p70 decrease vs vehicle,G2: 3 mg/kg ip twice weekly,67%
same,serum TNFα compared to Dex,"both once and twice weekly doses, p<0.001",decreased serum TNFα over that of Dex
same,"serum IL-12 decrease vs vehicle, range over the substance's groups",once and twice weekly groups,67-83%
same,serum CXCL9/MIG as compared to CTX,"p<0.001 vs CTX, but not to DEX",decreased
same,IL-13 serum levels compared to vehicle,treatment groups,No significant change
same,IL-17A serum levels compared to vehicle,treatment groups,No significant change
same,serum CXCL10/IP-10 decrease vs vehicle,twice weekly dose,30%
